Where two headings read alike, the source gives them in different places. Blank lines part the entries; values can stand above or below the compound they belong to.
How the values were obtained:
[1] = Plasma drug concentrations (pyrimethamine UPLC-MS/MS, VPA assay, unbound dolutegravir) in trial participants; format: in vivo, human; conditions: human, plasma, 6 hours, read-out: Median unbound dolutegravir concentration
Procedure: Self-reported adherence was assessed at each study visit, and empty pill strips were collected after the 2-week intervention phase. […] A gradient (0.3 ml/min) with two eluents was used (A: 2 mM ammonium acetate + 0.1% formic acid in water; B: 2 mM ammonium acetate + 0.1% formic acid in methanol). […] For measurement validation, we performed linearity, correctness, LOD and lower LOQ, repeatability, reproducibility, measurement uncertainty, robustness, and carryover. […] Unbound dolutegravir plasma concentrations were quantified with a validated UPLC-MS/MS bioquantification method as previously described ([61]).

HIV-1 = conditions: cited from earlier work

concentration at 6 h ([1]; those with pyrimethamine exposure): 11.7 ng/mL | concentration at 6 h ([1]; those without pyrimethamine exposure): 10.1 ng/mL
Compound: C[C@@H]1CCO[C@H]2Cn3cc(C(=O)NCc4ccc(F)cc4F)c(=O)c(O)c3C(=O)N12 [dolutegravir]

Compound: C/C=C1\NC(=O)[C@H]2CSSCC/C=C/[C@H](CC(=O)N[C@H](C(C)C)C(=O)N2)OC(=O)[C@H](C(C)C)NC1=O [romidepsin]
Effect on HIV-1 transcription (HIV-1; additional pharmacodynamics studies): no significant effect | Increase in CA US HIV-1 RNA (HIV-1; initial studies): approximately threefold

Compound: O=C(CCCCCCC(=O)Nc1ccccc1)NO [vorinostat]
Mean fold increase in CA US HIV-1 RNA (HIV-1; at time points during vorinostat): 2.6 fold | HIV-1 reactivation (HIV-1; combined with a T cell-inducing HIV-1 vaccine in PLWH who initiated cART during acute HIV-1): No reactivation | Fold change in CA US HIV-1 RNA (HIV-1; vorinostat treatment in postmenopausal women): 1.5 fold

Source: publication PMC10017042 (Science Advances, 2023)
